Assay results taken from article PMC10066365, “Nemacol is a small molecule inhibitor of C. elegans vesicular acetylcholine transporter with anthelmintic potential” (Nature Communications, 2023).
Values joined by “and” are separate entries in the source; they are usually repeats but may differ in a detail not shown here. Identical values can stand only once. Like-named read-outs stand apart in the source and are kept apart here.

Assays:
C. elegans = C. elegans motor phenotype scoring on solid media (Punc/jerky-unc, coiled, paralyzed), wild-type young adults; assay type: in vivo, Caenorhabditis elegans; conditions: for atypical locomotion (number of animals) / coiled (number of animals) / no phene (number of animals) / paralyzed (number of animals) / any phene: mean % fraction of young adults exhibiting any phenotype (coiled, jerky-Unc or paralyzed): one hour; for atypical locomotion (number of animals) / coiled (number of animals) / no phene (number of animals) / paralyzed (number of animals): young adults, 20 animals per trial, single technical replicate; for any phene: mean % fraction of young adults exhibiting any phenotype (coiled, jerky-Unc or paralyzed): mean of three biological replicates; for EC50: Caenorhabditis elegans, any motor phenotype after 1 h on solid media, ± 95% CI, read-out: C. elegans - motor disruption EC50
rat VAChT = biological target: T1, rat VAChT (Rattus norvegicus, UniProt Q62666); experiment: [3H]Vesamicol competitive radioligand binding, PC12 cells expressing ratVAChT
T1 construct: expressed in transfected cells; host or cells: rat PC12 (PC12 A123.7) cells, stably transfected; shared by Dr. Ali Roghani (Texas Tech University)
T1 sequence (Q62666 1-530): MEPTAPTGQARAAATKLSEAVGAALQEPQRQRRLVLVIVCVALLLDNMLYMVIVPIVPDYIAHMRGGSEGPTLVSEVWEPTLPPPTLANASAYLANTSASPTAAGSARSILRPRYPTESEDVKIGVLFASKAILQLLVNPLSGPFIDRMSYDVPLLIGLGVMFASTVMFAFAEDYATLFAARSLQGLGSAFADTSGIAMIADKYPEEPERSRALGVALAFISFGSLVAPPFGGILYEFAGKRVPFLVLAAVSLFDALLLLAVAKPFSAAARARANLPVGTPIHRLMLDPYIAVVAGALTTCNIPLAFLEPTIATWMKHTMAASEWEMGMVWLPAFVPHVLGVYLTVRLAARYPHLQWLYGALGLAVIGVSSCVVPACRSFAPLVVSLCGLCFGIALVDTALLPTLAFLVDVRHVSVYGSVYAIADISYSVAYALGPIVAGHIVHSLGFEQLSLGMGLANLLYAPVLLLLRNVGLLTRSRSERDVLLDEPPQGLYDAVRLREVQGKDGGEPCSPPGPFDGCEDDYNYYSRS

[1] = system: Dirofilaria immitis microfilariae; experiment: Dirofilaria immitis microfilariae immobility assay (DiroImager, 72 h); conditions: Dirofilaria immitis microfilariae
How it was run: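 Motility read after 72 h drug exposure with an image-based high-throughput plate imager, 1% DMSO medium serving as negative control. Missouri-isolate microfilariae, roughly 250 per well, freshly purified and cultured in supplemented RPMI 1640.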

[2] = system: Dirofilaria immitis L3/L4; experiment: Dirofilaria immitis L3/L4 motility assay (DiroImager, 72 h); conditions: Dirofilaria immitis L4
Pristionchus pacificus = Pristionchus pacificus motor disruption dose-response on solid media, 1 h; conditions: for EC50: Pristionchus pacificus, 1 h, read-out: P. pacificus motor disruption EC50; for mean % any phene: any phenotype (coiled, jerky-Unc or paralyzed) at one hour, mean of three biological replicates; for rep 1 atypical locomotion / rep 1 coiled / rep 1 no phene / rep 1 paralyzed / rep 2 atypical locomotion / rep 2 coiled / rep 2 no phene / rep 2 paralyzed / rep 3 atypical locomotion / rep 3 coiled / rep 3 no phene / rep 3 paralyzed: count of 20 animals per trial, one hour
[3] = [3H]Vesamicol binding, PC12, experiment 1, read-out: expt 1 Ki (M) vs. rat VAChT (PC12)
[4] = [3H]Vesamicol binding, PC12, experiment 2, read-out: expt 2 Ki (M) vs. rat VAChT (PC12)
[5] = [3H]Vesamicol binding, rat VAChT (PC12), mean of 2-3 experiments, read-out: mean Ki
[6] = [3H]Vesamicol displacement, mean, read-out: ratVAChT Ki

## CC1CCC(N2CCN(c3ccccc3)CC2)CC1 (stereo not shown) [Nemacol-50]
C. elegans; 3.75uM
  atypical locomotion (number of animals): 8 and 14 and 7 and 18 and 16
  coiled (number of animals): 0 and 1
  no phene (number of animals): 11 and 5 and 12 and 13 and 2 and 4
  paralyzed (number of animals): 1 and 0
  any phene: mean % fraction of young adults exhibiting any phenotype (coiled, jerky-Unc or paralyzed): 60.8333%
C. elegans; 15uM
  atypical locomotion (number of animals): 10 and 12 and 11 and 17 and 7 and 5
  coiled (number of animals): 1 and 0 and 7 and 3 and 4
  no phene (number of animals): 2 and 0
  paralyzed (number of animals): 7 and 8 and 0 and 9 and 12
  any phene: mean % fraction of young adults exhibiting any phenotype (coiled, jerky-Unc or paralyzed): 96.6667%
C. elegans; 60uM
  atypical locomotion (number of animals): 1 and 3 and 0 and 6 and 5 and 2
  coiled (number of animals): 8 and 11 and 14 and 5 and 6
  no phene (number of animals): 1 and 0
  paralyzed (number of animals): 10 and 6 and 12
  any phene: mean % fraction of young adults exhibiting any phenotype (coiled, jerky-Unc or paralyzed): 99.1667%
C. elegans
  EC50: 3 ± 1.3 µM
Rat VAChT; [3]
  Ki: 1.82e-06 M
Rat VAChT; [4]
  Ki: 2.05e-06 M
Rat VAChT; [3H]Vesamicol binding, PC12, third experiment column (date expt 3), read-out: expt 2 Ki (M) vs. rat VAChT (PC12)
  Ki: 1.95e-06 M
Rat VAChT; [5]
  Ki: 1.94e-06 M
Rat VAChT; [6]
  Ki: 1.94e-06 M
[1]; 0.016 µM
  % effect (motility), DIROIM MF: 0%
[1]; 0.08 µM
  % effect (motility), DIROIM MF: 0%
[1]; 0.4 µM
  % effect (motility), DIROIM MF: 0%
[1]; 2 µM
  % effect (motility), DIROIM MF: 0%
[1]; 10 µM
  % effect (motility), DIROIM MF: 0%
[2]; 2 µM
  % effect (motility), DIROIM L4: 0%
[2]; 10 µM
  % effect (motility), DIROIM L4: 0%
[2]; 50 µM
  % effect (motility), DIROIM L4: 5%
Pristionchus pacificus
  EC50: 49.2 µM
Pristionchus pacificus; conc 3.75
  mean % any phene: 0%
  rep 1 atypical locomotion: 0
  rep 1 coiled: 0
  rep 1 no phene: 20
  rep 1 paralyzed: 0
  rep 2 atypical locomotion: 0
  rep 2 coiled: 0
  rep 2 no phene: 20
  rep 2 paralyzed: 0
  rep 3 atypical locomotion: 0
  rep 3 coiled: 0
  rep 3 no phene: 20
  rep 3 paralyzed: 0
Pristionchus pacificus; conc 15
  mean % any phene: 0%
  rep 1 atypical locomotion: 0
  rep 1 coiled: 0
  rep 1 no phene: 20
  rep 1 paralyzed: 0
  rep 2 atypical locomotion: 0
  rep 2 coiled: 0
  rep 2 no phene: 20
  rep 2 paralyzed: 0
  rep 3 atypical locomotion: 0
  rep 3 coiled: 0
  rep 3 no phene: 20
  rep 3 paralyzed: 0
Pristionchus pacificus; conc 60
  mean % any phene: 98.3333%
  rep 1 atypical locomotion: 9 and 5
  rep 1 coiled: 4 and 2
  rep 1 no phene: 0
  rep 1 paralyzed: 7 and 13
  rep 2 atypical locomotion: 7 and 10
  rep 2 coiled: 4 and 2
  rep 2 no phene: 0
  rep 2 paralyzed: 9 and 8
  rep 3 atypical locomotion: 11 and 13
  rep 3 paralyzed: 6 and 4

## FC(F)(F)c1cccc(N2CCN(CC3CCCC3)CC2)c1 [Nemacol-63]
C. elegans; 3.75uM
  atypical locomotion (number of animals): 0 and 4 and 6 and 2
  coiled (number of animals): 0
  no phene (number of animals): 20 and 16 and 14 and 18
  paralyzed (number of animals): 0
  any phene: mean % fraction of young adults exhibiting any phenotype (coiled, jerky-Unc or paralyzed): 18.3333%
C. elegans; 15uM
  atypical locomotion (number of animals): 14 and 16 and 18 and 15 and 17
  coiled (number of animals): 3 and 0 and 2 and 1
  no phene (number of animals): 0 and 4 and 3
  paralyzed (number of animals): 3 and 4 and 0
  any phene: mean % fraction of young adults exhibiting any phenotype (coiled, jerky-Unc or paralyzed): 94.1667%
C. elegans; 60uM
  atypical locomotion (number of animals): 8 and 10 and 11 and 9 and 14 and 15
  coiled (number of animals): 1 and 3 and 2 and 4
  no phene (number of animals): 0 and 5 and 1
  paralyzed (number of animals): 11 and 7 and 9 and 0
  any phene: mean % fraction of young adults exhibiting any phenotype (coiled, jerky-Unc or paralyzed): 95%
C. elegans
  EC50: 6.1 ± 2.1 µM
Rat VAChT
  activity ratio, mammalian VAChT Ki to C. elegans in vivo EC50: 1.10
Rat VAChT; [3]
  Ki: 4.89e-06 M
Rat VAChT; [4]
  Ki: 8.47e-06 M
Rat VAChT; [5]
  Ki: 6.68e-06 M
Rat VAChT; [6]
  Ki: 6.68e-06 M
[1]; 0.016 µM
  % effect (motility), DIROIM MF: 0%
[1]; 0.08 µM
  % effect (motility), DIROIM MF: 0%
[1]; 0.4 µM
  % effect (motility), DIROIM MF: 0%
[1]; 2 µM
  % effect (motility), DIROIM MF: 0%
[1]; 10 µM
  % effect (motility), DIROIM MF: 0%
[2]; 10 µM
  % effect (motility), DIROIM L4: 10%
[2]; 50 µM
  % effect (motility), DIROIM L4: 0%
Pristionchus pacificus
  EC50: > 60 µM
Pristionchus pacificus; conc 3.75
  mean % any phene: 0.8333%
  rep 1 atypical locomotion: 0
  rep 1 coiled: 0
  rep 1 no phene: 20
  rep 1 paralyzed: 0
  rep 2 atypical locomotion: 1
  rep 2 coiled: 0
  rep 2 no phene: 19
  rep 2 paralyzed: 0
  rep 3 atypical locomotion: 0
  rep 3 coiled: 0
  rep 3 no phene: 20
  rep 3 paralyzed: 0
Pristionchus pacificus; conc 15
  mean % any phene: 1.667%
  rep 1 atypical locomotion: 0
  rep 1 coiled: 0
  rep 1 no phene: 20
  rep 1 paralyzed: 0
  rep 2 atypical locomotion: 0
  rep 2 coiled: 0
  rep 2 no phene: 19 and 20
  rep 3 atypical locomotion: 0
  rep 3 coiled: 0
  rep 3 no phene: 20 and 19
Pristionchus pacificus; conc 60
  mean % any phene: 10.8333%
  rep 1 atypical locomotion: 4 and 3
  rep 1 no phene: 16
  rep 1 paralyzed: 0
  rep 2 atypical locomotion: 1 and 2
  rep 2 coiled: 0
  rep 2 no phene: 18
  rep 3 coiled: 0
  rep 3 no phene: 20 and 19
  rep 3 paralyzed: 0
